Experimental data taken from patent publication US20140303092A1 (CHIMERIX, INC., priority 2011, published 2014).

Assay: Study HDP-CDV-201: safety and tolerability (adverse events, laboratory abnormalities, discontinuations)
Type: in vivo, human (adult allogeneic HSCT recipients)
Method: Clinical Studies of HDP-CDV were performed and described in detail in the following Examples. For example, HDP-CDV-201 is a placebo-controlled, dose-escalating trial in HSCT CMV (R+) recipients, evaluating the ability of HDP-CDV to prevent or control CMV infection was carried out. Five cohorts were established in which participants or subjects received either placebo or the HDP-CDV orally, in doses ranging from 40 mg weekly (QW) to 200 mg twice weekly (BIW). Subjects who were post-HSCT were enrolled at the time of engraftment and randomized to HDP-CDV or placebo (3 to 1 ratio) and received blinded therapy until approximately 100 day post-transplantation. HDP-CDV doses were 40 mg QW, 100 mg QW, 200 mg QW, 200 mg BIW and 100 mg BIW. Escalation to the next dose was decided by the data monitoring committee after review of the safety data from the previous Cohort. Subjects who developed CMV disease or CMV infection requiring pre-emptive therapy with local standard of care were discontinued from blinded therapy and followed for 4 weeks. Subjects who completed treatment with blinded therapy were followed for 8 weeks post-therapy.
Data from Study HDP-CDV-201 also provided characterization of the safety and tolerability profile of HDP-CDV when administered for the prevention or control of CMV infection in high risk (R^+) post-HSCT adult subjects.
The Safety population (SAFETY) included all randomized subjects who took at least one dose of study treatment. This population was used to summarize safety outcomes based on the treatment actually received, in cases where a subject was treated contrary to the randomization schedule.
The safety and tolerability profile of HDP-CDV, including subject demographics and Baseline characteristics; the AE profile; and laboratory abnormalities of interest were analyzed in the cohorts followed in this investigation.
Subjects completing the treatment period received a full course of study medication; those completing the entire study attended visits through 8 weeks of follow up. Subjects who discontinued treatment may have done so for protocol specified reasons (e.g. development of clinically significant CMV infection requiring preemptive treatment with excluded anti-CMV medications) or for other reasons (e.g., withdrawal, adverse events, loss to follow-up). The disposition of subjects in Study HDP-CDV-201 during the double-blind, placebo-controlled treatment period (through Week 11) is listed by dosing Cohort in TABLE 23.
Adverse events were examined by severity to ensure that all safety signals were identified in this study population. Because of the frequency of events in HSCT recipients, particular attention was given to evaluation of Grade 3 […], 4 (severe), and 5 (fatal) adverse events.
Only those preferred terms for which at least one Grade 3 or higher event was experienced in any treatment group are listed. Cytomegalovirus-related AEs are excluded from this analysis.
HDP-CDV is a lipid conjugate of CDV. Because CDV is known to have adverse effects on renal function and bone marrow, decreased GFR and persistent neutropenia were identified as AEs of special interest. Key renal and hematological (TABLE 30) laboratory parameters were measured and listed below by Study HDP-CDV-201 treatment groups. TABLE 30 includes abnormal levels of serum creatinine, neutrophils, platelets, WBCs, and hemoglobin and includes data at Screening and during the treatment period.
A common metric for unit based dosing of medications is by weight (mg/kg). When the distribution of weights was examined for all subjects participating in the study, the median was 78 kg and the lower 25th percentile weight was approximately 65 kg, which translates to a cut-off of ˜3 mg/kg for a 200 mg total weekly dose. Based upon this approach, a cut-off of 3 mg/kg was used to assess the frequency of diarrhea and associated GI AEs reported for the subjects in Cohorts 3 or 4a (TABLE 40).

CCCCCCCCCCCCCCCCOCCCOP(=O)(O)COC(CO)Cn1ccc(N)nc1=O (stereo not drawn) [HDP-CDV]
TEAE Pneumonia, Grade 4 (40 mg QW): 1 (4.0%)
TEAE Pneumonia, Grade 5 (40 mg QW): 0
TEAE Pyrexia, Frequency (40 mg QW): 1 (4.0%)
TEAE Pyrexia, Grade 2 (40 mg QW): 1 (4.0%)
TEAE Pyrexia, Grade 3 (40 mg QW): 0
TEAE Pyrexia, Grade 4 (40 mg QW): 0
TEAE Pyrexia, Grade 5 (40 mg QW): 0
TEAE Renal Failure, Frequency (40 mg QW): 1 (4.0%)
TEAE Renal Failure, Grade 2 (40 mg QW): 0
TEAE Renal Failure, Grade 3 (40 mg QW): 1 (4.0%)
TEAE Renal Failure, Grade 4 (40 mg QW): 0
TEAE Renal Failure, Grade 5 (40 mg QW): 0
TEAE Staphylococcal Bacteremia, Frequency (40 mg QW): 0
TEAE Staphylococcal Bacteremia, Grade 2 (40 mg QW): 0
TEAE Staphylococcal Bacteremia, Grade 3 (40 mg QW): 0
TEAE Staphylococcal Bacteremia, Grade 4 (40 mg QW): 0
TEAE Staphylococcal Bacteremia, Grade 5 (40 mg QW): 0
TEAE Thrombocytopenia, Frequency (40 mg QW): 3 (12.0%)
TEAE Thrombocytopenia, Grade 2 (40 mg QW): 1 (4.0%)
TEAE Thrombocytopenia, Grade 3 (40 mg QW): 1 (4.0%)
TEAE Thrombocytopenia, Grade 4 (40 mg QW): 1 (4.0%)
TEAE Thrombocytopenia, Grade 5 (40 mg QW): 0
TEAE Vomiting, Frequency (40 mg QW): 2 (8.0%)
TEAE Vomiting, Grade 2 (40 mg QW): 1 (4.0%)
TEAE Vomiting, Grade 3 (40 mg QW): 0
TEAE Vomiting, Grade 4 (40 mg QW): 0
TEAE Vomiting, Grade 5 (40 mg QW): 0
subjects discontinued due to acute renal failure (40 mg QW): one
Subjects Reporting Diarrhea as an AE (40 mg QW, n = 25): 3 (12.0%)
Discontinuation: Death (40 mg QW, active treatment period): 1 (4.0%) Subject n (%)
Discontinuation: Adverse event (40 mg QW, active treatment period through Week 11): 3 (12.0%) Subject n (%)
TEAE ALT increased, Frequency (100 mg BIW): 9 (18.0%)
TEAE ALT increased, Grade 2 (100 mg BIW): 1 (2.0%)
TEAE ALT increased, Grade 3 (100 mg BIW): 4 (8.0%)
TEAE ALT increased, Grade 4 (100 mg BIW): 0
TEAE ALT increased, Grade 5 (100 mg BIW): 0
TEAE AML, Recurrent, Frequency (100 mg BIW): 3 (6.0%)
TEAE AML, Recurrent, Grade 2 (100 mg BIW): 1 (2.0%)
TEAE AML, Recurrent, Grade 3 (100 mg BIW): 0
TEAE AML, Recurrent, Grade 4 (100 mg BIW): 1 (2.0%)
TEAE AML, Recurrent, Grade 5 (100 mg BIW): 1 (2.0%)
TEAE AST increased, Frequency (100 mg BIW): 5 (10.0%)
TEAE AST increased, Grade 2 (100 mg BIW): 1 (2.0%)
TEAE AST increased, Grade 3 (100 mg BIW): 3 (6.0%)
TEAE AST increased, Grade 4 (100 mg BIW): 0
TEAE AST increased, Grade 5 (100 mg BIW): 0
TEAE Abdominal pain, Frequency (100 mg BIW): 13 (26.0%)
TEAE Abdominal pain, Grade 2 (100 mg BIW): 1 (2.0%)
TEAE Abdominal pain, Grade 3 (100 mg BIW): 1 (2.0%)
TEAE Abdominal pain, Grade 4 (100 mg BIW): 0
TEAE Abdominal pain, Grade 5 (100 mg BIW): 0
TEAE Acute GVHD, Frequency (100 mg BIW): 32 (64.0%)
TEAE Acute GVHD, Grade 2 (100 mg BIW): 11 (22.0%)
TEAE Acute GVHD, Grade 3 (100 mg BIW): 12 (24.0%)
TEAE Acute GVHD, Grade 4 (100 mg BIW): 5 (10.0%)
TEAE Arthralgias, Frequency (100 mg BIW): 3 (6.0%)
TEAE Arthralgias, Grade 2 (100 mg BIW): 1 (2.0%)
TEAE Arthralgias, Grade 3 (100 mg BIW): 1 (2.0%)
TEAE Arthralgias, Grade 4 (100 mg BIW): 0
TEAE Arthralgias, Grade 5 (100 mg BIW): 0
TEAE Back Pain, Frequency (100 mg BIW): 4 (8.0%)
TEAE Back Pain, Grade 2 (100 mg BIW): 3 (6.0%)
TEAE Back Pain, Grade 3 (100 mg BIW): 0
TEAE Back Pain, Grade 4 (100 mg BIW): 0
TEAE Back Pain, Grade 5 (100 mg BIW): 0
TEAE Decreased appetite, Frequency (100 mg BIW): 9 (18.0%)
TEAE Decreased appetite, Grade 3 (100 mg BIW): 3 (6.0%)
TEAE Decreased appetite, Grade 4 (100 mg BIW): 0
TEAE Decreased appetite, Grade 5 (100 mg BIW): 0
TEAE Diarrhea, Frequency (100 mg BIW): 26 (52.0%)
TEAE Diarrhea, Grade 2 (100 mg BIW): 6 (12.0%)
TEAE Diarrhea, Grade 3 (100 mg BIW): 9 (18.0%)
TEAE Diarrhea, Grade 4 (100 mg BIW): 0
TEAE Diarrhea, Grade 5 (100 mg BIW): 0
TEAE Fatigue, Frequency (100 mg BIW): 9 (18.0%)
TEAE Fatigue, Grade 2 (100 mg BIW): 2 (4.0%)
TEAE Fatigue, Grade 3 (100 mg BIW): 0
TEAE Fatigue, Grade 4 (100 mg BIW): 0
TEAE Fatigue, Grade 5 (100 mg BIW): 0
TEAE GGT Increased, Frequency (100 mg BIW): 4 (8.0%)
TEAE GGT Increased, Grade 2 (100 mg BIW): 1 (2.0%)
TEAE GGT Increased, Grade 3 (100 mg BIW): 3 (6.0%)
TEAE GGT Increased, Grade 4 (100 mg BIW): 0
TEAE GGT Increased, Grade 5 (100 mg BIW): 0
TEAE Generalized oedema, Frequency (100 mg BIW): 1 (2.0%)
TEAE Generalized oedema, Grade 2 (100 mg BIW): 1 (2.0%)
TEAE Generalized oedema, Grade 3 (100 mg BIW): 0
TEAE Generalized oedema, Grade 4 (100 mg BIW): 0
TEAE Generalized oedema, Grade 5 (100 mg BIW): 0
TEAE Hyperbilirubinaemia, Frequency (100 mg BIW): 3 (6.0%)
TEAE Hyperbilirubinaemia, Grade 2 (100 mg BIW): 1 (2.0%)
TEAE Hyperbilirubinaemia, Grade 3 (100 mg BIW): 0
TEAE Hyperbilirubinaemia, Grade 4 (100 mg BIW): 0
TEAE Hyperbilirubinaemia, Grade 5 (100 mg BIW): 0
TEAE Hyperglycaemia, Frequency (100 mg BIW): 9 (18.0%)
TEAE Hyperglycaemia, Grade 2 (100 mg BIW): 4 (8.0%)
TEAE Hyperglycaemia, Grade 3 (100 mg BIW): 2 (4.0%)
TEAE Hyperglycaemia, Grade 4 (100 mg BIW): 1 (2.0%)
TEAE Hyperglycaemia, Grade 5 (100 mg BIW): 0
TEAE Hyperkalemia, Frequency (100 mg BIW): 3 (6.0%)
TEAE Hyperkalemia, Grade 2 (100 mg BIW): 2 (4.0%)
TEAE Hyperkalemia, Grade 3 (100 mg BIW): 0
TEAE Hyperkalemia, Grade 4 (100 mg BIW): 0
TEAE Hyperkalemia, Grade 5 (100 mg BIW): 0
TEAE Hypocalcaemia, Frequency (100 mg BIW): 2 (4.0%)
TEAE Hypocalcaemia, Grade 2 (100 mg BIW): 1 (2.0%)
TEAE Hypocalcaemia, Grade 3 (100 mg BIW): 1 (2.0%)
TEAE Hypocalcaemia, Grade 4 (100 mg BIW): 0
TEAE Hypocalcaemia, Grade 5 (100 mg BIW): 0
TEAE Hypokalaemia, Frequency (100 mg BIW): 8 (16.0%)
TEAE Hypokalaemia, Grade 2 (100 mg BIW): 2 (4.0%)
